# In patent publication US7105547B2, “Antimicrobial 1-aryl dihydropyridone compounds” (Pharmacia and Upjohn Company, priority 2002, dated 2006):
# Like-named read-outs stand apart in the source and are kept apart here.
# Assays:
# SPNE 9912 = assay: MIC by agar dilution against SPNE 9912; type: cell-based; conditions: Streptococcus pneumoniae, read-out: SPNE 9912 MIC (Minimum Inhibitory Concentration)
# From the text: (§1) Compounds of this invention have useful activity against a variety of organisms. The in vitro activity of compounds of this invention can be assessed by standard testing procedures such as the determination of minimum inhibitory concentration (MIC) by agar dilution as described in “Approved Standard. Methods for Dilution Antimicrobial Susceptibility Tests for Bacteria That Grow Aerobically”, 3rd. ed., published 1993 by the National Committee for Clinical Laboratory Standards, Villanova, Pa., USA.
# HINF 30063 = assay: MIC by agar dilution against HINF 30063; type: cell-based, H. influenzae; conditions: Haemophilus influenzae, read-out: HINF 30063 MIC (Minimum Inhibitory Concentration)
# From the text: as §1
# [1] = system: Staphylococcus aureus UC9213 (SAUR 9213); assay: MIC by agar dilution against Staphylococcus aureus UC9213; type: cell-based; conditions: read-out: SAUR 9213 MIC (Minimum Inhibitory Concentration)
# From the text: as §1
MIC (SPNE 9912),"MIC (HINF 30063; HINF 30063, agar dilution)",MIC [1],SMILES,MIC (HINF 30063)
0.25 µg/mL,8 µg/mL,1 µg/mL,"O=C1C=CN(c2ccc(N3C[C@H](Cn4ccnn4)OC3=O)cc2F)CC1 [Example 16, 1-{2-fluoro-4-[(5R)-2-oxo-5-(1H-1,2,3-triazol-1-ylmethyl)-1,3-oxazolidin-3-yl]phenyl}-2,3-dihydropyridin-4(1H)-one]",–
0.25 µg/mL,8 µg/mL,0.5 µg/mL,"O=C1C=CN(c2c(F)cc(N3C[C@H](CNC(=S)C(F)F)OC3=O)cc2F)CC1 [Example 14, N-{3-[3,5-difluoro-4-(4-oxo-3,4-dihydro-2H-pyridin-1-yl)-phenyl]-2-oxo-oxazolidin-5-ylmethyl}-2,2-difluoro-thioacetamide]",–
0.5 µg/mL,4 µg/mL,2 µg/mL,"CC(=O)NC[C@H]1CN(c2ccc(N3C=CC(=O)CC3)cc2)C(=O)O1 [Example 9, N-{2-oxo-3-[4-(4-oxo-3,4-dihydro-2H-pyridin-1-yl)-phenyl]-oxazolidin-5-ylmethyl}-acetamide]",–
0.25 µg/mL,4 µg/mL,2 µg/mL,"CC(=O)NC[C@H]1CN(c2ccc(N3C=CC(=O)CC3)c(F)c2)C(=O)O1 [Example 1, N-{3-[3-fluoro-4-(4-oxo-3,4-dihydro-2H-pyridin-1-yl)-phenyl]-2-oxo-oxazolidin-5-ylmethyl}-acetamide]",–
0.5 µg/mL,4 µg/mL,2 µg/mL,"O=C1C=CN(c2ccc(N3C[C@H](CNC(=O)C(F)F)OC3=O)cc2)CC1 [Example 11, 2,2-difluoro-N-{2-oxo-3-[4-(4-oxo-3,4-dihydro-2H-pyridin-1-yl)-phenyl]-oxazolidin-5-ylmethyl}-acetamide]",–
0.5 µg/mL,2 µg/mL,1 µg/mL,"CCC(=O)NC[C@H]1CN(c2ccc(N3C=CC(=O)CC3)c(F)c2)C(=O)O1 [Example 4, N-{3-[3-fluoro-4-(4-oxo-3,4-dihydro-2H-pyridin-1-yl)-phenyl]-2-oxo-oxazolidin-5-ylmethyl}-propionamide]",–
0.5 µg/mL,8 µg/mL,1 µg/mL,"CC(=O)NC[C@H]1CN(c2cc(F)c(N3C=CC(=O)CC3)c(F)c2)C(=O)O1 [Example 2, N-{3-[3,5-diluoro-4-(4-oxo-3,4-dihydro-2H-pyridin-1-yl)-phenyl]-2-oxo-oxazolidin-5-ylmethyl}-acetamide]",–
0.25 µg/mL,8 µg/mL,2 µg/mL,"O=C1C=CN(c2c(F)cc(N3C[C@H](CNC(=O)C(F)F)OC3=O)cc2F)CC1 [Example 13, N-{3-[3,5-difluoro-4-(4-oxo-3,4-dihydro-2H-pyridin-1-yl)-phenyl]-2-oxo-oxazolidin-5-ylmethyl}-2,2-difluoro-acetamide]",–
0.25 µg/mL,1 µg/mL,1 µg/mL,"O=C1C=CN(c2ccc(N3C[C@H](CNC(=O)C(Cl)Cl)OC3=O)cc2F)CC1 [Example 5, 2,2-dichloro-N-{3-[3-fluoro-4-(4-oxo-3,4-dihydro-2H-pyridin-1-yl)-phenyl]-2-oxo-oxazolidin-5-ylmethyl}-acetamide]",–
1 µg/mL,8 µg/mL,1 µg/mL,"O=C1C=CN(c2ccc(N3C[C@H](Cn4ccnn4)OC3=O)cc2)CC1 [Example 17, 1-{4-[(5R)-2-oxo-5-(1H-1,2,3-triazol-1-ylmethyl)-1,3-oxazolidin-3-yl]phenyl}-2,3-dihydropyridin-4(1H)-one]",–
0.25 µg/mL,4 µg/mL,1 µg/mL,"O=C1C=CN(c2ccc(N3C[C@H](CNC(=S)C(F)F)OC3=O)cc2)CC1 [Example 10, 2,2-difluoro-N-{2-oxo-3-[4-(4-oxo-3,4-dihydro-2H-pyridin-1-yl)-phenyl]-oxazolidin-5-ylmethyl}-thioacetamide]",–
0.5 µg/mL,4 µg/mL,4 µg/mL,"CCC(=O)NC[C@H]1CN(c2ccc(N3C=CC(=O)CC3)cc2)C(=O)O1 [Example 12, N-{2-oxo-3-[4-(4-oxo-3,4-dihydro-2H-pyridin-1-yl)-phenyl]-oxazolidin-5-ylmethyl}-propionamide]",–
0.5 µg/mL,8 µg/mL,2 µg/mL,"COC(=O)NC[C@H]1CN(c2ccc(N3C=CC(=O)CC3)c(F)c2)C(=O)O1 [Example 7, {3-[3-fluoro-4-(4-oxo-3,4-dihydro-2H-pyridin-1-yl)-phenyl]-2-oxo-oxazolidin-5-ylmethyl}-carbamic Acid Methyl Ester]",–
0.125 µg/mL,4 µg/mL,1 µg/mL,"O=C1C=CN(c2ccc(N3C[C@H](CNC(=S)C(F)F)OC3=O)cc2F)CC1 [Example 6, 2,2-difluoro-N-{3-[3-fluoro-4-(4-oxo-3,4-dihydro-2H-pyridin-1-yl)-phenyl]-2-oxo-oxazolidin-5-ylmethyl}-thioacetamide]",–
0.25 µg/mL,2 µg/mL,2 µg/mL,"O=C1C=CN(c2ccc(N3C[C@H](CNC(=O)C(Cl)Cl)OC3=O)cc2)CC1 [Example 8, 2,2-dichloro-N-{2-oxo-3-[4-(4-oxo-3,4-dihydro-2H-pyridin-1-yl)-phenyl]-oxazolidin-5-ylmethyl}-acetamide]",–
0.25 µg/mL,4 µg/mL,2 µg/mL,"O=C1C=CN(c2c(F)cc(N3C[C@H](CNC(=O)C(Cl)Cl)OC3=O)cc2F)CC1 [Example 15, 2,2-dichloro-N-{3-[3,5-difluoro-4-(4-oxo-3,4-dihydro-2H-pyridin-1-yl)-phenyl]-2-oxo-oxazolidin-5-ylmethyl}-acetamide]",–

SMILES,MIC (SPNE 9912),"MIC (HINF 30063; HINF 30063, agar dilution)",MIC [1],MIC (HINF 30063)
"O=C1C=CN(c2ccc(N3C[C@H](CNC(=O)C(F)F)OC3=O)cc2F)CC1 [Example 3, N-{3-[3-fluoro-4-(4-oxo-3,4-dihydro-2H-pyridin-1-yl)-phenyl]-2-oxo-oxazolidin-5-ylmethyl}-difluoroacetamide]",0.25 µg/mL,–,1 µg/mL,2 µg/mL
